# Values joined by “and” are separate entries in the source; they are usually repeats but may differ in a detail not shown here. Equal entries are not always repeated.
# System: 276233-004-R-J1-PDC complex spheroid viability
# Test: Anticancer human tumor 276233-004-R-J1-PDC patient-derived colon adenocarcinoma cell line growth inhibition [GQUAD]
# Details: for viability, T/C: stronger effect = lower value
# Source text: DNA G-quadruplex Stabilizer Agents in Combinations in Complex Spheroids
# A high-throughput screen of multi-cell type tumor spheroids was designed to identify active combinations of DNA G-quadruplex stabilizer agents and targeted small molecules. Complex spheroids include a stromal component modeled by human endothelial cells (HUVEC) and fibroblasts modeled by human mesenchymal stem cells (MSCs). The concentration ranges selected for each drug and investigational agent were based upon clinically achievable concentrations if the clinical Cmax of the agent was known.
# Compounds. The drugs and investigational agents: pidnarulex (CX-5461; NSC782164), APTO-253 (NSC789042), BRACO-19 (NSC847499), peposertib (NSC802822), ceralasertib (NSC780249), elimusertib (NSC800525), camonsertib (NSC841442), AZD-1390 (NSC803789), olaparib (NSC753686), talazoparib (NSC767125), ART-558 (NSC835418), sotorasib (NSC818433), MRTX-1133 (NSC836407), SN-38 (NSC673596), topotecan (NSC609699), etoposide (NSC141540), doxorubicin (NSC123127), gemcitabine (NSC613327), 5-fluorouracil (NSC19893), paclitaxel (NSC125973), vemurafenib (NSC761431), panobinostat (NSC761190), R-306465 (JNJ-16241199; NSC773264), adavosertib (NSC754352), TP-3654 (NSC805149), carboplatin (NSC241240), KSQ-4279 (NSC840948), and staurosporine (NSC755774) were obtained from the National Cancer Institute (NCI) Developmental Therapeutics Program Chemical Repository (34). The FDA-approved anticancer drug set is available from the NCI Developmental Therapeutics Program. […] The stock solutions were prepared in dimethyl sulfoxide (DMSO, Sigma-Aldrich, St. Louis, MO, cat. D2650) at 800-fold the tested concentration and stored at -70 degrees C prior to their use. All drugs and investigational agents were tested over a range starting from a high concentration at or near the clinical Cmax and decreasing in half-log increments. If the clinical Cmax for an agent had not been determined, the highest concentration tested was 10 microM.
# 2.3 Cell Culture. All cells were maintained in an incubator at 37 degrees C and 5% CO2 with 95% humidity. The PDC lines were cultured according to standard operating procedures established by the NCI PDMR. All PDCs were thawed and cultured in Matrigel-coated flasks prepared with a working solution of 1X Ham's F-12 nutrient mix, without supplementation (Invitrogen, cat. 11765054), 100 U/mL penicillin-streptomycin (Invitrogen, cat. 15140122), and 2.5% Matrigel (Corning Inc., cat. 354248) for the first three passages. The 857933-349-R-J2-PDC line was cultured in 6C/Colon 1B media, which includes advanced DMEM/F-12 (Thermo Fisher Scientific, cat. 12634028), 10 mM HEPES (Thermo Fisher Scientific, cat. 15630080), 1X GlutaMAX supplement (Thermo Fisher Scientific, cat. 35050061), 0.1 mg/mL primocin (InvivoGen, cat. ant-pm-2), 10% defined fetal bovine serum, heat inactivated (HyClone Laboratories Inc., cat. SH30070.03HI), 50% L-WRN conditioned media (ATCC, cat. CRL-3276), 1.25 mM N-Acetyl-L-cysteine (Sigma-Aldrich, cat. A9165), 10 mM nicotinamide (Sigma-Aldrich, cat. N0636), 1X B-27 supplement (Thermo Fisher Scientific, cat. 17504044), 1X N-2 supplement (Thermo Fisher Scientific, cat. 17502048), 10 microM Y-27632 dihydrochloride (Tocris Bioscience, cat. 1254), and 50 ng/mL human EGF recombinant protein (Thermo Fisher Scientific, cat. PHG0311). The 485176-168-R4-J1-PDC line was cultured in Panc media, which includes all 6C/Colon 1B media components plus 100 ng/mL human FGF-10 (Thermo Fisher Scientific, cat. 100-26), 500 nM SB-431542 (Selleckchem, cat. S1067), and gastrin (Tocris, cat. 3006).
# […]
# [1] = curve of first compound, second compound 0.0316 µM
# [2] = curve of first compound, second compound 0.1 µM
# [3] = curve of first compound, second compound 0.316 µM
# [4] = curve of first compound, second compound 1 µM
# [5] = curve of first compound, second compound 3.16 µM
# [6] = curve of first compound, second compound 10 µM
# [7] = second compound 0.0316 µM, first compound 0.0316 µM
# [8] = second compound 0.0316 µM, first compound 0.316 µM
# [9] = second compound 0.1 µM, first compound 0.0316 µM
# [10] = second compound 0.1 µM, first compound 0.316 µM
# [11] = second compound 0.316 µM, first compound 0.0316 µM
# [12] = second compound 0.316 µM, first compound 0.316 µM
# [13] = second compound 1 µM, first compound 0.0316 µM
# [14] = second compound 1 µM, first compound 0.316 µM
# [15] = second compound 3.16 µM, first compound 0.0316 µM
# [16] = second compound 3.16 µM, first compound 0.316 µM
# [17] = second compound 10 µM, first compound 0.0316 µM
# [18] = second compound 10 µM, first compound 0.316 µM
# 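Also: spheroids exposed to drugs for seven days.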
# 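For viability, T/C in this document: 100% = DMSO vehicle control viability.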
smiles,measurement,setting,value
Cn1ncnc1[C@H]1c2n[nH]c(=O)c3cc(F)cc(c23)N[C@@H]1c1ccc(F)cc1 + Cc1[nH]c2ccc(F)cc2c1-c1nc2c3cccnc3c3ncccc3c2[nH]1,IC50,[1],> 0.316 µM
same,IC50,[2],> 0.316 µM
same,IC50,[3],> 0.316 µM
same,IC50,[4],> 0.316 µM
same,IC50,[5],> 0.316 µM
same,IC50,[6],< 0.000999 µM
same,"viability, T/C","second compound 0.0316 µM, first compound 0.000999 µM",89%
same,"viability, T/C","second compound 0.0316 µM, first compound 0.00316 µM",99.2%
same,"viability, T/C","second compound 0.0316 µM, first compound 0.00999 µM",104%
same,"viability, T/C",[7],94.1%
same,"viability, T/C","second compound 0.0316 µM, first compound 0.0999 µM",95.6%
same,"viability, T/C",[8],90.7%
same,"viability, T/C","second compound 0.1 µM, first compound 0.000999 µM",91.2%
same,"viability, T/C","second compound 0.1 µM, first compound 0.00316 µM",97.8%
same,"viability, T/C","second compound 0.1 µM, first compound 0.00999 µM",99.9%
same,"viability, T/C",[9],88.5%
same,"viability, T/C","second compound 0.1 µM, first compound 0.0999 µM",98%
same,"viability, T/C",[10],94.8%
same,"viability, T/C","second compound 0.316 µM, first compound 0.000999 µM",94.7%
same,"viability, T/C","second compound 0.316 µM, first compound 0.00316 µM",79.9%
same,"viability, T/C","second compound 0.316 µM, first compound 0.00999 µM",86.6%
same,"viability, T/C",[11],99.2%
same,"viability, T/C","second compound 0.316 µM, first compound 0.0999 µM",100%
same,"viability, T/C",[12],93%
same,"viability, T/C","second compound 1 µM, first compound 0.000999 µM",63.5%
same,"viability, T/C","second compound 1 µM, first compound 0.00316 µM",66.6%
same,"viability, T/C","second compound 1 µM, first compound 0.00999 µM",78.7%
same,"viability, T/C",[13],72.7%
same,"viability, T/C","second compound 1 µM, first compound 0.0999 µM",70.6%
same,"viability, T/C",[14],84.7%
same,"viability, T/C","second compound 3.16 µM, first compound 0.000999 µM",56.3%
same,"viability, T/C","second compound 3.16 µM, first compound 0.00316 µM",66.5%
same,"viability, T/C","second compound 3.16 µM, first compound 0.00999 µM",49.2%
same,"viability, T/C",[15],54.2%
same,"viability, T/C","second compound 3.16 µM, first compound 0.0999 µM",60.4%
same,"viability, T/C",[16],57.4%
same,"viability, T/C","second compound 10 µM, first compound 0.000999 µM",50.3%
same,"viability, T/C","second compound 10 µM, first compound 0.00316 µM",47.3%
same,"viability, T/C","second compound 10 µM, first compound 0.00999 µM",50.5%
same,"viability, T/C",[17],62.7%
same,"viability, T/C","second compound 10 µM, first compound 0.0999 µM",62%
same,"viability, T/C",[18],44.2%
C=CCn1c(=O)c2cnc(Nc3ccc(N4CCN(C)CC4)cc3)nc2n1-c1cccc(C(C)(C)O)n1,"viability, T/C",compound 0.0316 µM,108% and 106% and 77.9%
same,"viability, T/C",compound 0.1 µM,92.1% and 90.6% and 74.1%
same,"viability, T/C",compound 0.316 µM,70.8% and 73.3% and 90.3%
same,"viability, T/C",compound 1 µM,63.5% and 69.4% and 61.4%
same,"viability, T/C",compound 3.16 µM,73.4% and 78.4% and 80.3%
same,"viability, T/C",compound 10 µM,65.8% and 87.4% and 92.2%
same,IC50,curve of compound,> 10 µM
CC(C)(O)C1CCC(Nc2ccc3ncc(-c4cccc(C(F)(F)F)c4)n3n2)CC1 (stereo not drawn),"viability, T/C",compound 0.0316 µM,82.3% and 80.4% and 95.8%
same,"viability, T/C",compound 0.1 µM,73.1% and 79.5% and 84.1%
same,"viability, T/C",compound 0.316 µM,72.7% and 86.8% and 87.8%
same,"viability, T/C",compound 1 µM,62.9% and 60.6% and 73.3%
same,"viability, T/C",compound 3.16 µM,43.8% and 49.5% and 61%
same,"viability, T/C",compound 10 µM,45.6% and 63.7% and 54.7%
same,IC50,curve of compound,2.38 µM and > 10 µM
O=C(NO)c1cnc(N2CCN(S(=O)(=O)c3ccc4ccccc4c3)CC2)nc1 + Cc1cnc(CNC(=O)c2c(=O)c3ccc(N4CCCN(C)CC4)nc3n3c2sc2ccccc23)cn1,IC50,[1],0.456 µM
same,IC50,[2],0.284 µM
same,IC50,[3],0.281 µM
same,IC50,[4],0.195 µM
same,IC50,[5],0.146 µM
same,IC50,[6],0.112 µM
same,"viability, T/C",[7],102%
same,"viability, T/C","second compound 0.0316 µM, first compound 0.1 µM",86.2%
same,"viability, T/C",[8],69%
same,"viability, T/C","second compound 0.0316 µM, first compound 1 µM",10.2%
same,"viability, T/C","second compound 0.0316 µM, first compound 3.16 µM",5.35%
same,"viability, T/C","second compound 0.0316 µM, first compound 10 µM",4.15%
same,"viability, T/C",[9],93.9%
same,"viability, T/C","second compound 0.1 µM, first compound 0.1 µM",94.6%
same,"viability, T/C",[10],44.4%
same,"viability, T/C","second compound 0.1 µM, first compound 1 µM",13.8%
same,"viability, T/C","second compound 0.1 µM, first compound 3.16 µM",5.07%
same,"viability, T/C","second compound 0.1 µM, first compound 10 µM",3.5%
same,"viability, T/C",[11],84.6%
same,"viability, T/C","second compound 0.316 µM, first compound 0.1 µM",85.2%
same,"viability, T/C",[12],46%
same,"viability, T/C","second compound 0.316 µM, first compound 1 µM",6.38%
same,"viability, T/C","second compound 0.316 µM, first compound 3.16 µM",5.3%
same,"viability, T/C","second compound 0.316 µM, first compound 10 µM",5.47%
same,"viability, T/C",[13],67.8%
same,"viability, T/C","second compound 1 µM, first compound 0.1 µM",86%
same,"viability, T/C",[14],30.5%
same,"viability, T/C","second compound 1 µM, first compound 1 µM",6.13%
same,"viability, T/C","second compound 1 µM, first compound 3.16 µM",4.71%
same,"viability, T/C","second compound 1 µM, first compound 10 µM",4.58%
same,"viability, T/C",[15],72.2%
same,"viability, T/C","second compound 3.16 µM, first compound 0.1 µM",63.9%
same,"viability, T/C",[16],21.5%
same,"viability, T/C","second compound 3.16 µM, first compound 1 µM",5.71%
same,"viability, T/C","second compound 3.16 µM, first compound 3.16 µM",5.15%
same,"viability, T/C","second compound 3.16 µM, first compound 10 µM",5.15%
same,"viability, T/C",[17],71.6%
same,"viability, T/C","second compound 10 µM, first compound 0.1 µM",54.2%
same,"viability, T/C",[18],11.4%
same,"viability, T/C","second compound 10 µM, first compound 1 µM",5.41%
same,"viability, T/C","second compound 10 µM, first compound 3.16 µM",4.71%
same,"viability, T/C","second compound 10 µM, first compound 10 µM",3.76%
